Measured values reported in PMC7897990, “TriTOX: A novel Trichomonas vaginalis assay platform for high-throughput screening of compound libraries” (International Journal for Parasitology: Drugs and Drug …, 2021).
Where two headings read alike, the source gives them in different places.

How the values were obtained:
[1] = tested on: Trichomonas vaginalis G3 trophozoites
[2] = tested on: nontumorigenic neonatal foreskin fibroblast (NFF) cell line
[3] = HTS single concentration, parasite screen 1 µg/mL, replicate 1
[4] = HTS single concentration, parasite screen 1 µg/mL, replicate 2
[5] = NFF_NS1 screen 5 µg/mL, single concentration
[6] = parasite screen at 1 µg/mL, replicate 1
[7] = parasite screen at 1 µg/mL, replicate 2
[8] = NFF_NS1 screen at 5 µg/mL, NFF cells
[9] = replicate 1, parasite screen at 1 µg/mL
[10] = replicate 2, parasite screen at 1 µg/mL
[11] = HTS replicate 1, parasite screen 1 µg/mL
[12] = HTS replicate 2, parasite screen 1 µg/mL
[13] = NFF fibroblasts, single concentration 5 µg/mL
[14] = HTS, parasite screen at 1 µg/mL, replicate 1
[15] = HTS, parasite screen at 1 µg/mL, replicate 1, raw absorbance
[16] = HTS, parasite screen at 1 µg/mL, replicate 2
[17] = HTS, parasite screen at 1 µg/mL, replicate 2, raw absorbance
[18] = NFF fibroblast screen at 5 µg/mL, A = active, I = inactive

CO[C@H]1C[C@H](O[C@H]2[C@H](C)O[C@@H](O[C@@H]3/C(C)=C/C[C@@H]4C[C@@H](C[C@]5(C=C[C@H](C)[C@@H](C(C)C)O5)O4)OC(=O)[C@@H]4C=C(C)[C@@H](O)[C@H]5OC/C(=C\C=C\[C@@H]3C)[C@]54O)C[C@@H]2OC)O[C@@H](C)[C@H]1NC(C)=O [Eprinomectin B1b]
T.vaginalis_%inb_Rep1 [1]: 14.00%
T.vaginalis_%inb_Rep2 [1]: 14.75%
T.vaginalis_Absorbance_Rep1 [1]: 0.969
T.vaginalis_Absorbance_Rep2 [1]: 0.824
NFF_Activity [2]: I (key: active (A) compounds having >25% inhibitory activity; otherwise these were reported as inactive (I))

CC(=O)NCCc1cnc[nH]1 [BIA-A1737]
T.vaginalis_%inb_Rep1 [1, 3]: 14.86%
T.vaginalis_%inb_Rep2 [1, 4]: 38.90%
NFF_Activity [2, 5]: I (otherwise these were reported as inactive (I))

C=CC(C)(C)[C@@]12C[C@H]3C(=O)N/C(=C/c4c[nH]cn4)C(=O)N3[C@@H]1Nc1ccccc12 [BIA-R1083]
T.vaginalis_%inb_Rep1 [1, 6]: 13.69%
T.vaginalis_%inb_Rep2 [1, 7]: 4.87%
NFF_Activity [2, 8]: A (active (A) compounds having >25% inhibitory activity)

CCCCCCCCCCCCCCCC(=O)C1=C(O)C(CO)OC1=O (stereo not drawn) [BIA-R1082]
T.vaginalis_%inb_Rep1 [1, 6]: 10.55%
T.vaginalis_%inb_Rep2 [1, 7]: 12.25%
NFF_Activity [2, 8]: I (otherwise these were reported as inactive (I))

O=C1CCC[C@@H]2[C@H]3C[C@@H](CN12)[C@@H]1CCCCN1C3 [BIA-L1951]
T.vaginalis_%inb_Rep1 [1, 9]: 8.91%
T.vaginalis_%inb_Rep2 [1, 10]: 11.70%
NFF_Activity ([2]; NFF cells, screen at 5 µg/mL): I (otherwise these were reported as inactive (I))

CCCCCCCC(=O)N[C@H]1CCOC1=O [Octanoyl-L-homoserine lactone]
T.vaginalis_%inb_Rep1 [1, 11]: 16.84%
T.vaginalis_%inb_Rep2 [1, 12]: 14.05%
NFF_Activity [2, 13]: I (otherwise these were reported as inactive (I))

CCC[C@H](O)C[C@@H]1CC[C@H](C)CCCCC(=O)N(C)[C@@H](Cc2ccc(OCCO)cc2)C(=O)O1 [PF1163A]
T.vaginalis_%inb_Rep1 [1, 11]: 11.61%
T.vaginalis_%inb_Rep2 [1, 12]: 10.39%
NFF_Activity [2, 13]: I (otherwise these were reported as inactive (I))

CCOC(=O)[C@H](Cc1ccccc1)NC(=O)c1cc(Cl)c2c(c1O)C(=O)O[C@H](C)C2 [Ochratoxin C]
T.vaginalis_%inb_Rep1 [1, 11]: 15.37%
T.vaginalis_%inb_Rep2 [1, 12]: 4.81%
NFF_Activity [2, 13]: I (otherwise these were reported as inactive (I))

CC(/C=C/[C@@]1(C)[C@H](C)CCC(=O)[C@@H]1C)=C\Cc1c(O)c(Cl)c(C)c(C=O)c1O [BIA-A1115]
T.vaginalis_%inb_Rep1 [1, 3]: 16.42%
T.vaginalis_%inb_Rep2 [1, 4]: 18.08%
NFF_Activity [2, 5]: I (otherwise these were reported as inactive (I))

C=C1c2cccc(O)c2C(O)=C2C(=O)C3(O)C(O)=C(C(N)=O)C(=O)C(N(C)C)C3C(O)C12 (stereo not drawn) [BIA-M1467]
T.vaginalis_%inb_Rep1 [1, 9]: 12.78%
T.vaginalis_%inb_Rep2 [1, 10]: 4.43%
NFF_Activity ([2]; NFF cells, screen at 5 µg/mL): I (otherwise these were reported as inactive (I))

CC(=O)OCC1=C[C@@H]2OC(=O)C3=CO[C@@H](O[C@@H]4O[C@H](CO)[C@@H](O)[C@H](O)[C@H]4O)[C@H]1[C@@H]32 [BIA-A1774]
T.vaginalis_%inb_Rep1 [1, 3]: 16.59%
T.vaginalis_%inb_Rep2 [1, 4]: 15.84%
NFF_Activity [2, 5]: I (otherwise these were reported as inactive (I))

CS(=O)(=O)c1ccc([C@@H](O)[C@H](N)CF)cc1.Cl [Florfenicol amine HCl]
T.vaginalis_%inb_Rep1 [1, 14]: 15.67%
T.vaginalis_Absorbance_Rep1 [1, 15]: 1
T.vaginalis_%inb_Rep2 [1, 16]: 15.11%
T.vaginalis_Absorbance_Rep2 [1, 17]: 0.829
NFF_Activity ([2]; NFF_NS1 screen at 5 µg/mL): I (otherwise these were reported as inactive (I))

CCCCCC(=O)N[C@H]1CCOC1=O [BIA-H1495]
T.vaginalis_%inb_Rep1 [1, 9]: 10.40%
T.vaginalis_%inb_Rep2 [1, 10]: 12.70%
NFF_Activity ([2]; NFF cells, screen at 5 µg/mL): I (otherwise these were reported as inactive (I))

Nargenicin
T.vaginalis_%inb_Rep1 [1, 11]: 10.70%
T.vaginalis_%inb_Rep2 [1, 12]: 13.02%
NFF_Activity [2, 13]: I (otherwise these were reported as inactive (I))

Echinocandin B
T.vaginalis_%inb_Rep1 [1, 14]: 15.24%
T.vaginalis_Absorbance_Rep1 [1, 15]: 0.992
T.vaginalis_%inb_Rep2 [1, 16]: 6.58%
T.vaginalis_Absorbance_Rep2 [1, 17]: 0.711
NFF_Activity ([2]; NFF_NS1 screen at 5 µg/mL): I (otherwise these were reported as inactive (I))

O=C(N[C@H](COC(=O)[C@H](Cc1ccccc1)NC(=O)c1ccccc1)Cc1ccccc1)c1ccccc1 [BIA-A1643]
T.vaginalis_%inb_Rep1 [1, 3]: 13.09%
T.vaginalis_%inb_Rep2 [1, 4]: 15.04%
NFF_Activity [2, 5]: I (otherwise these were reported as inactive (I))

CN[C@@H]1C[C@H]2O[C@@](C)([C@@H]1OC)n1c3ccccc3c3c4c(c5c6ccccc6n2c5c31)C(=O)NC4 [BIA-S1086]
T.vaginalis_%inb_Rep1 [1, 6]: 72.52%
T.vaginalis_%inb_Rep2 [1, 7]: 83.24%
NFF_Activity [2, 8]: A (active (A) compounds having >25% inhibitory activity)

CCC(=O)[C@@H](C)[C@@H](O)[C@H](C)C[C@@H](C)[C@H]1OC(=O)C[C@@]2(O)CC=C(C)[C@H](O2)/C(C)=C/CCC[C@@H](O[C@H]2C[C@@H](O)[C@H](O)[C@@H](C)O2)/C=C/[C@H](C)C[C@H]1C [Venturicidin B]
T.vaginalis_%inb_Rep1 [1, 14]: 9.81%
T.vaginalis_%inb_Rep2 [1, 16]: 16.33%
NFF_Activity [2, 18]: I (otherwise these were reported as inactive (I))

COc1cc(C)c(C(=O)O)c(OC)c1 [Orsellinic acid dimethylether]
T.vaginalis_%inb_Rep1 [1, 11]: 12.73%
T.vaginalis_%inb_Rep2 [1, 12]: 13.02%
NFF_Activity [2, 13]: I (otherwise these were reported as inactive (I))

C[C@H]1CCC/C=C/C(=O)c2c(O)cc(O)cc2CC(=O)O1 [BIA-D1399]
T.vaginalis_%inb_Rep1 [1, 3]: 13.95%
T.vaginalis_%inb_Rep2 [1, 4]: 13.67%
NFF_Activity [2, 5]: A (active (A) compounds having >25% inhibitory activity)

CC[C@H](C)[C@H]1O[C@]2(CC[C@@H]1C)C[C@@H]1C[C@@H](C/C=C(\C)[C@@H](O[C@H]3C[C@H](OC)[C@@H](O[C@H]4C[C@H](OC)[C@@H](O)[C@H](C)O4)[C@H](C)O3)[C@@H](C)/C=C/C=C3\CO[C@@H]4[C@H](O)C(C)=C[C@@H](C(=O)O1)[C@]34O)O2 [BIA-I1119]
T.vaginalis_%inb_Rep1 [1, 9]: 13.79%
T.vaginalis_%inb_Rep2 [1, 10]: 12.96%
NFF_Activity ([2]; NFF cells, screen at 5 µg/mL): I (otherwise these were reported as inactive (I))

CC[C@H](C)[C@@H]1NC(=O)C(C(C)=O)=C1O [BIA-T1277]
T.vaginalis_%inb_Rep1 [1, 6]: 8.60%
T.vaginalis_%inb_Rep2 [1, 7]: 14.81%
NFF_Activity [2, 8]: I (otherwise these were reported as inactive (I))

CC1=CC2C(O)CCCC2C(C)(C(O)=C2C(=O)CNC2=O)C1CCC(C)C(O)/C(C)=C/CC(O)/C=C/C(C)C(O)/C=C/CC(O)/C=C/CC(O)CC1CCCN1C(=N)N (stereo not drawn) [TPU-0037C]
T.vaginalis_%inb_Rep1 [1, 14]: 9.28%
T.vaginalis_%inb_Rep2 [1, 16]: 14.69%
NFF_Activity [2, 18]: I (otherwise these were reported as inactive (I))

CC[C@H]1C[C@@H]2CC[C@@H](O2)[C@@H](C)C(=O)O[C@H](CC)C[C@H]2CC[C@H](O2)[C@H](C)C(=O)O[C@@H](C)C[C@@H]2CC[C@@H](O2)[C@@H](C)C(=O)O[C@H](CC)C[C@H]2CC[C@H](O2)[C@H](C)C(=O)O1 [Trinactin]
T.vaginalis_%inb_Rep1 [1, 14]: 11.27%
T.vaginalis_%inb_Rep2 [1, 16]: 13.47%
NFF_Activity [2, 18]: I (otherwise these were reported as inactive (I))

Viridicatumtoxin
T.vaginalis_%inb_Rep1 [1, 14]: 8.70%
T.vaginalis_%inb_Rep2 [1, 16]: 2.74%
NFF_Activity [2, 18]: I (otherwise these were reported as inactive (I))

C[C@@H]1OC(=O)[C@H]2C[C@H]3CCCC[C@@H]3[C@@H](/C=C/[C@H]3CCC[C@H](C)N3C)[C@@H]12 [BIA-H1744]
T.vaginalis_%inb_Rep1 [1, 9]: 12.98%
T.vaginalis_%inb_Rep2 [1, 10]: 14.75%
NFF_Activity ([2]; NFF cells, screen at 5 µg/mL): I (otherwise these were reported as inactive (I))
